One compound from publication PMC4835877, “HM71224, a novel Bruton’s tyrosine kinase inhibitor, suppresses B cell and monocyte activation and ameliorates arthritis in a mouse model: a potential drug for rheumatoid arthritis” (Arthritis Research & Therapy, 2016) can be followed below.

Assay [1] has as its target T1, EGFR (Homo sapiens, UniProt P00533). In words: Phosphorylation of EGFR in cells. It is filed as cell-based. More on the design: EGFR-overexpressing epidermoid carcinoma A431 cell line; endogenous in cells; host or cells: A431. The note with it: cellular; read-out: IC50 on inhibiting EGFR phosphorylation.
Assay [2] deals with phosphorylation of Btk, PLC-γ2, Erk. Description: Phospho-flow cytometry of BCR-crosslinked human PBMCs. The assay is classed as cell-based. To be noted: anti-IgM F(ab')2. How it is done: (§1) For phospho-flow, B cells were activated by crosslinking their BCRs with anti-human IgM antibodies (10 μg/mL; BD Biosciences) for 10 minutes at 37 °C. Cells were then fixed with 2 % paraformaldehyde at 37 °C for 12 minutes, permeabilized, and stained with anti-CD3-FITC (SK7; BD Biosciences), anti-CD20-PerCP-Cy5.5 (H1; BD Biosciences), anti-pBtk (Y223)-Alexa647 (N35-86; BD Biosciences), anti-pPLCγ2 (Y759)-Alexa647 (K86-689.37; BD Biosciences), anti-pSTAT1 (Y701)-Alexa647 (4a; BD Biosciences), anti-pSTAT3 (Y705)-Alexa647 (4/P-STAT3; BD Biosciences), anti-pSTAT5 (Y694)-Alexa647 (47; BD Biosciences), and anti-pERK1/2 (T202/204)-Alexa647 (20A; BD Biosciences) antibodies. The cells were then washed and analyzed on an LSR II flow cytometer (BD Biosciences). Data were analyzed using FlowJo software, version 8.8 (Treestar, Ashland, OR, USA).
A general note: Flow cytometry measures light scatter and fluorescence of single cells or particles in a stream.

Assay [3] deals with T2, BTK (Homo sapiens, UniProt Q06187). Description: Kinome Binding Tree Spot analysis, Scan Max (DiscoveRx). Details: purchased DiscoveRx (Scan Max panel). To be noted: concentration of 2 μM.
The test system of assay [4] is phosphorylation of Btk and PLCγ2 in Ramos cells. Description: BCR signaling in anti-IgM stimulated Ramos cells (immunoblot). The assay is classed as cell-based, human.
Description: (§3) Ramos cells or human B cells were pretreated with the indicated concentrations of HM71224 and then stimulated with anti-IgM F(ab’)2 (Southern Biotech, Birmingham, AL, USA) for 10 minutes on ice. Cells were then lysed in RIPA buffer (Sigma-Aldrich), and the proteins were separated by SDS-PAGE (Bio-Rad Laboratories, Hercules, CA, USA), transferred onto polyvinylidene fluoride (PVDF) membranes, and immunoblotted with anti-pBtk Y223 (catalog number 5082; Cell Signaling Technology, Danvers, MA, USA), anti-pPLCγ2 Y759 (catalog number 3874; Cell Signaling Technology), anti-pPLCγ2 Y1217 (Cell Signaling Technology), anti-pERK T202/204 (197G2; Cell Signaling Technology), anti-Btk (C82B8; Cell Signal Technology), anti-PLCγ2 (catalog number 3872; Cell Signal Technology), anti-ERK1/2 (3A7; Cell Signaling Technology), and anti-GAPDH (FL-335; Santa Cruz Biotechnology, Santa Cruz, TX, USA) antibodies.
The Ramos B cell lymphoma cell line was chosen to study the inhibitory effects of HM71224 on the BCR signaling cascade as it endogenously expresses Btk [14]. […] Ramos cells were incubated with 100 nM HM71224 for 1 h. After washing, the cells were stimulated with anti-IgM F(ab’)2.
Assay [5] concerns human plasmacytoid dendritic cells. Description: Cytokine production by human PDCs stimulated with CpG ODN or LPS (ELISA). The assay is classed as cell-based. The note with it: CpG ODN (TLR9 agonist), 1 μM, 48 h. Background: An ELISA detects its analyte on a solid surface through an enzyme-linked reagent.
Description: Human monocytes were stimulated with heat-inactivated ICs at 37 °C for 30 minutes in the presence of increasing concentrations of HM71224. Human PDCs were stimulated with lipopolysaccharide (LPS) or CpG ODN 2006 (ThermoFisher Scientific) for 48 h in the absence or presence of HM71224 (1 μM). The production of tumor necrosis factor (TNF)-α, interleukin (IL)-1β, and IL-6 was then measured using a commercial ELISA (R&D Systems). […] The levels of the indicated cytokines in the culture supernatant were then measured by ELISA at 5 h post stimulation. […] The levels of the indicated cytokines in the culture supernatant were then measured by ELISA at 48 h post stimulation.*P < 0.05, **P < 0.01, and ***P < 0.001 vs. no treatment. LPS lipopolysaccharide
For assay [6], the target named is T1, EGFR. Description: FRET-based Z'-Lyte kinase assay. The note with it: read-out: Biochemical Inhibition, IC50. More on the design: purchased ThermoFisher Scientific (contract research organization). From the text: (§2) To determine the biochemical selectivity of HM71224, we tested more than 85 kinases using the fluorescence resonance energy transfer (FRET) method.

Assay [7] has as its target T2, BTK. Description: FRET-based Z'-Lyte kinase assay. More on the design: purchased ThermoFisher Scientific (contract research organization). The note with it: read-out: Biochemical Inhibition, IC50.
Source text: as §2

Assay [8] relates to phosphorylation of Btk and PLCγ2 in primary human B cells. In words: BCR signaling in primary human B cells (immunoblot). It is filed as cell-based. To be noted: BCR ligation. On the technique in general: In western blotting, separated proteins are transferred to a membrane and probed.
Description: as §3
The next assay deals with T3, BLK (Homo sapiens, UniProt P51451).
T3 construct: purchased ThermoFisher Scientific (contract research organization)
Description: FRET-based Z'-Lyte kinase assay. The note with it: read-out: Biochemical Inhibition, IC50.
Source text: as §2

A further assay concerns the target T4, LYN (Homo sapiens, UniProt P07948).
T4 construct: purchased ThermoFisher Scientific (contract research organization)
In words: FRET-based Z'-Lyte kinase assay. The note with it: read-out: Biochemical Inhibition, IC50.
Source text: as §2

For another assay, the target named is T5, BMX (Homo sapiens, UniProt P51813).
T5 construct: purchased ThermoFisher Scientific (contract research organization)
In words: FRET-based Z'-Lyte kinase assay. The note with it: read-out: Biochemical Inhibition, IC50.
Source text: as §2

The target of another assay is T6, LCK (Homo sapiens, UniProt P06239).
T6 construct: purchased ThermoFisher Scientific (contract research organization)
Description: FRET-based Z'-Lyte kinase assay. To be noted: read-out: Biochemical Inhibition, IC50.
Source text: as §2

The target of a further assay is T7, YES (Homo sapiens, UniProt P07947).
T7 construct: purchased ThermoFisher Scientific (contract research organization)
Description: FRET-based Z'-Lyte kinase assay. To be noted: read-out: Biochemical Inhibition, IC50.
Source text: as §2

A further assay has as its target T8, ITK (Homo sapiens, UniProt Q08881).
T8 construct: purchased ThermoFisher Scientific (contract research organization)
In words: FRET-based Z'-Lyte kinase assay. The note with it: read-out: Biochemical Inhibition, IC50.
Source text: as §2

The target of a further assay is T9, CSK (Homo sapiens, UniProt P41240).
T9 construct: purchased ThermoFisher Scientific (contract research organization)
In words: FRET-based Z'-Lyte kinase assay. The note with it: read-out: Biochemical Inhibition, IC50.
Source text: as §2

A further assay has as its target T10, TEC (Homo sapiens, UniProt P42680).
T10 construct: purchased ThermoFisher Scientific (contract research organization)
In words: FRET-based Z'-Lyte kinase assay. To be noted: read-out: Biochemical Inhibition, IC50.
Source text: as §2

The target of the next assay is T11, TXK (Homo sapiens, UniProt P42681).
T11 construct: purchased ThermoFisher Scientific (contract research organization)
In words: FRET-based Z'-Lyte kinase assay. To be noted: read-out: Biochemical Inhibition, IC50.
Source text: as §2

The next assay has as its system human CD14+ monocytes. Description: Osteoclast formation from human CD14+ cells (TRAP staining). To be noted: Monocyte, 1000 nM. The assay is classed as cell-based. On the procedure: Isolated human CD14 cells (1 × 10^5 cells per well) were cultured in a 96-well plate at 37 °C in alpha-minimum essential medium (MEM) supplemented with 10 % FBS and 25 ng/mL M-CSF (Sigma-Aldrich) in the presence of increasing concentrations of HM71224. RANKL (100 ng/mL, Sigma-Aldrich) was added after 3 days. The medium was replaced every 3 days. On day 9, cells were fixed with 3 % formaldehyde and stained for tartrate-resistant acid phosphatase (TRAP) expression (Sigma-Aldrich). To drive osteoclast formation from bone morrow cells, BMMs (4 × 10^4 per well) were stimulated with 30 ng/mL M-CSF and 100 ng/mL RANKL in the presence of increasing concentrations of HM71224 for 4 days. TRAP+ cells with three or more nuclei were counted as osteoclasts.

In a further assay the test system is CD3+ T cells. In words: T cell signaling, phospho-flow of CD3/CD28-activated PBMCs. The assay is classed as cell-based, human. To be noted: CD3- and CD28-conjugated beads. How it is done:
as §1
Figure S5. Effect of HM71224 on human T cell signaling. […] The expression level of p-STAT1, p-STAT3, p-STAT5, and p-ERK1/2 by CD3+ T cells was then measured by phospho-flow cytometry.

Assay [9] has as its target T2, BTK. Description: Btk occupancy in Ramos cells (biotinylated probe). It is filed as cell-based. How it is done: After treatment with HM71224, cells were lysed and then incubated for 1 h with 1 μM of biotinylated probe (HM71224 derivative). The lysed cells were loaded into streptavidin-coated wells and then incubated with an anti-Btk antibody (1:1000; clone number D3H5, Cell signaling Technology, Danvers, MA, USA) for 1 h, followed by a secondary HRP-conjugated antibody (1:10000; EMD Millipore Corporation, Billerica, MA, USA) at room temperature for 1 h. After washing, 100 μL of colorimetric solution (R&D systems, Minneapolis, MN, USA) was added, and the reaction was stopped 30 minutes later by addition of 100 μL of sulfuric acid (0.2 moles/L). The plate was read with the absorbance reader at 450 nm.
To measure Btk occupancy by immunoprecipitation (IP), biotinylated HM71224 probes were preincubated with cell lysates for 1 h at 4 °C. Streptavidin-coated beads were then added, and the mixture was incubated overnight at 4 °C. Immunoblotting was then performed, and band density was measured using MultiGauge V3.0 software (FUJI FILM, Tokyo, Japan). Untreated biotinylated probes were set at 100 %.

The structures appear in SMILES notation.

T2 sequence (Q06187 whole entry): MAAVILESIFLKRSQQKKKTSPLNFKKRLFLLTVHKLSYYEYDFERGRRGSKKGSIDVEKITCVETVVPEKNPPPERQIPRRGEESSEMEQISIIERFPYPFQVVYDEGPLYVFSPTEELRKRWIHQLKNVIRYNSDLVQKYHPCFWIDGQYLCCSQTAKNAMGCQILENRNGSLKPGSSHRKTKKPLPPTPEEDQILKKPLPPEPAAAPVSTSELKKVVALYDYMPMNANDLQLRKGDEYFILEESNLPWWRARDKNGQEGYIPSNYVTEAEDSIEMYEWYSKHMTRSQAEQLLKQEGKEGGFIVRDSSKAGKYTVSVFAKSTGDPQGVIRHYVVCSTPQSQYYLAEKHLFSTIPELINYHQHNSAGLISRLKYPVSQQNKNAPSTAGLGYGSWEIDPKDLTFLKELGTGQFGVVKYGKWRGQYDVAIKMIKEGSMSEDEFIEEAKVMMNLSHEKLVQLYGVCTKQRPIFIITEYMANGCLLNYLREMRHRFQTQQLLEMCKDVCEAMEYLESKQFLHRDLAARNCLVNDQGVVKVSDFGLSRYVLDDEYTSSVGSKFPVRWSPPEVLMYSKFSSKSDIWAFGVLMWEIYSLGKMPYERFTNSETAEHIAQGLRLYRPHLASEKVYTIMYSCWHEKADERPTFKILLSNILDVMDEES
T1 sequence (P00533 25-1210): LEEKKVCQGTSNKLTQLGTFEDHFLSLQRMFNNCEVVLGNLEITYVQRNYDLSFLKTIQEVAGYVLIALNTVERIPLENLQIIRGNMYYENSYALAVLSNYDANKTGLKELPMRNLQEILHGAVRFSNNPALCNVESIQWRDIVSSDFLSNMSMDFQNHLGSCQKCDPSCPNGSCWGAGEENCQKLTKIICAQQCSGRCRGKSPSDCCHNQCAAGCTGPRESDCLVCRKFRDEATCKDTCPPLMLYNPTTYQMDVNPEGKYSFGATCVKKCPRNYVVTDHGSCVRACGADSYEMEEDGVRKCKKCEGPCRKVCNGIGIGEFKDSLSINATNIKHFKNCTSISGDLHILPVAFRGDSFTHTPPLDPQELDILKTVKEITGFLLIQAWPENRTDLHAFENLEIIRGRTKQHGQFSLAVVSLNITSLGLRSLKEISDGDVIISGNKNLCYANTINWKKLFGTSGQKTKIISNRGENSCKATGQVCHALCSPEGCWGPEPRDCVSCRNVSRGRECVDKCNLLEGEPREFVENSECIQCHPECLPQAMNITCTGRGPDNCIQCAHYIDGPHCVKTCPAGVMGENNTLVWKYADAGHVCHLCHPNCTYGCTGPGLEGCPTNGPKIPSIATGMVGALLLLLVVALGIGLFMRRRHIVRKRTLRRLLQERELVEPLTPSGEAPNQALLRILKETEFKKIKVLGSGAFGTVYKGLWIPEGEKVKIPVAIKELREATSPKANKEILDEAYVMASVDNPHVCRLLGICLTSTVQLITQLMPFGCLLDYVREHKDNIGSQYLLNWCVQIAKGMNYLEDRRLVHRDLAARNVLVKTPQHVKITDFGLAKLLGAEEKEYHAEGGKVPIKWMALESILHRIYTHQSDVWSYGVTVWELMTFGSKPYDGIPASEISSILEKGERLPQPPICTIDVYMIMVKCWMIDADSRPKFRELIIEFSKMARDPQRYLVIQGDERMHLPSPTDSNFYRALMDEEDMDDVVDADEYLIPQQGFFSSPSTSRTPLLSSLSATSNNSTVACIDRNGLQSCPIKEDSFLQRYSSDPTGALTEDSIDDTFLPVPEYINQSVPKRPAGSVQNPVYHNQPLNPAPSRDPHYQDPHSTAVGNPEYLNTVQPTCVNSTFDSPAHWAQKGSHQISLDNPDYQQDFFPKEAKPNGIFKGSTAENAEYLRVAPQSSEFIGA
T8 sequence (Q08881 whole entry): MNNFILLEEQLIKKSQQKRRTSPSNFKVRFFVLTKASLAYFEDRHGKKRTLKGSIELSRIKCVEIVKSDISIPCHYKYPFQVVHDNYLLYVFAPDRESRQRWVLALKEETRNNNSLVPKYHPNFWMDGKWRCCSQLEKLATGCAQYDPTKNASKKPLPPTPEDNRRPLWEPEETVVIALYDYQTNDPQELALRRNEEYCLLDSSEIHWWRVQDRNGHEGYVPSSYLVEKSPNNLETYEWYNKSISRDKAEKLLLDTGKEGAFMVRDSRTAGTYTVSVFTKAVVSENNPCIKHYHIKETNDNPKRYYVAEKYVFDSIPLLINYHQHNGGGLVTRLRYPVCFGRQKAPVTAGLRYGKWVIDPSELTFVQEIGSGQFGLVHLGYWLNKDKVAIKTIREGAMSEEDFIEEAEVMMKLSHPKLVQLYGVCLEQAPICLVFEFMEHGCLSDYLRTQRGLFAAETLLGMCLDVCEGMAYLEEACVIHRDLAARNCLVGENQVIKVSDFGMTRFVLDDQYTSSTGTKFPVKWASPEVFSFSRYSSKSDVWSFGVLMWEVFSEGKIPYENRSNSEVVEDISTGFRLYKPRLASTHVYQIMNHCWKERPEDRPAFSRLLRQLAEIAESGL
T3 sequence (P51451 whole entry): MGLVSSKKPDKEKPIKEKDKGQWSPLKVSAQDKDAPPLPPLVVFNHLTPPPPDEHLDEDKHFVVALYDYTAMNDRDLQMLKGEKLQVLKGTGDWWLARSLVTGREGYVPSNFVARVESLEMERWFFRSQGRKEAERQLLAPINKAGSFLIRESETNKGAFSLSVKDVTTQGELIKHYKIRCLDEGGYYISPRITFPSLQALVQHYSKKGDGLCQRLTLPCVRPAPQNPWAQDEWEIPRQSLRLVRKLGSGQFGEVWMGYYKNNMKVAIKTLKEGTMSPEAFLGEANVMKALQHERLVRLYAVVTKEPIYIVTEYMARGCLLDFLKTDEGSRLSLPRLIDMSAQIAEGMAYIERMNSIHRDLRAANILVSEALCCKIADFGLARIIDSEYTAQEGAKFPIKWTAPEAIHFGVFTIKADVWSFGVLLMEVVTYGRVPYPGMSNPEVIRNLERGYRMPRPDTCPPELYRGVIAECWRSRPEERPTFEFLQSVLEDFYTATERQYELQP
T9 sequence (P41240 whole entry): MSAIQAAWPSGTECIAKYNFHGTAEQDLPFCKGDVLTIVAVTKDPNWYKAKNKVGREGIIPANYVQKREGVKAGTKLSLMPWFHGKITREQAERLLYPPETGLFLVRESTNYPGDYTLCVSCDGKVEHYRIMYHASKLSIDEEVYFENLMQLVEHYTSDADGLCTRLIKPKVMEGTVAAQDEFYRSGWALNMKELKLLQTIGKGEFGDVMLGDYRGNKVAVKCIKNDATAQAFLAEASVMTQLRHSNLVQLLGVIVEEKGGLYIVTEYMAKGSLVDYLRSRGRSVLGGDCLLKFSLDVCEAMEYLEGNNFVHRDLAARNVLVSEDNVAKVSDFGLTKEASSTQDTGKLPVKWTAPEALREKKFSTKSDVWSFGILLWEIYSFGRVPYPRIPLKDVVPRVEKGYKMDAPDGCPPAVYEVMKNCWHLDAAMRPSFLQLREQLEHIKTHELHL
T6 sequence (P06239 whole entry): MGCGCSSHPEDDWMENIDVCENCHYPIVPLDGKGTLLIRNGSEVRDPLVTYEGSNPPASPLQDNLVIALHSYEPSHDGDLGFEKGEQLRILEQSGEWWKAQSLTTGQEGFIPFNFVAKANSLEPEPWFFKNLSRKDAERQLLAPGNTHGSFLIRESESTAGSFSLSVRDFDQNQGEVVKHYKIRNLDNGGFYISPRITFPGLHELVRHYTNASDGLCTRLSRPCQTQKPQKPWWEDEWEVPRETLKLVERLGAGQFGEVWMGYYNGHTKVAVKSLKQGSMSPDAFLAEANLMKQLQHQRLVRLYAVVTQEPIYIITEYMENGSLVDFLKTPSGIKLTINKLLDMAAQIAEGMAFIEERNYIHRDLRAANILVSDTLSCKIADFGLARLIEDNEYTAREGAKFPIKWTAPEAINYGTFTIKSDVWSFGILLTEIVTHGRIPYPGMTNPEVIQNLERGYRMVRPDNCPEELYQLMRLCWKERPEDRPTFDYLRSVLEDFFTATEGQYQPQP
T11 sequence (P42681 whole entry): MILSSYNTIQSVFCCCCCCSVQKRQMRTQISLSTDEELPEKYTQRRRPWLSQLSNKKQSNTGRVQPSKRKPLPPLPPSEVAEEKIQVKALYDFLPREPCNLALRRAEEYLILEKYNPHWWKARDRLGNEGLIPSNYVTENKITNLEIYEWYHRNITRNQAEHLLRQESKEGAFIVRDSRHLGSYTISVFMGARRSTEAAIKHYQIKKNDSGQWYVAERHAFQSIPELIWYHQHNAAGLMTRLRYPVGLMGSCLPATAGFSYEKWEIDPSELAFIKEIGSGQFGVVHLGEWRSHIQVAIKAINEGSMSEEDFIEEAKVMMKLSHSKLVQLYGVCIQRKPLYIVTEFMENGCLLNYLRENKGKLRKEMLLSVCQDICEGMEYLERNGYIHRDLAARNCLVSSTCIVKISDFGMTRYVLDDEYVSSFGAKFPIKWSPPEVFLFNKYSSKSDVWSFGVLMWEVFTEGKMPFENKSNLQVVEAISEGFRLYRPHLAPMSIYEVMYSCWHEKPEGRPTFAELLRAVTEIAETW
T7 sequence (P07947 whole entry): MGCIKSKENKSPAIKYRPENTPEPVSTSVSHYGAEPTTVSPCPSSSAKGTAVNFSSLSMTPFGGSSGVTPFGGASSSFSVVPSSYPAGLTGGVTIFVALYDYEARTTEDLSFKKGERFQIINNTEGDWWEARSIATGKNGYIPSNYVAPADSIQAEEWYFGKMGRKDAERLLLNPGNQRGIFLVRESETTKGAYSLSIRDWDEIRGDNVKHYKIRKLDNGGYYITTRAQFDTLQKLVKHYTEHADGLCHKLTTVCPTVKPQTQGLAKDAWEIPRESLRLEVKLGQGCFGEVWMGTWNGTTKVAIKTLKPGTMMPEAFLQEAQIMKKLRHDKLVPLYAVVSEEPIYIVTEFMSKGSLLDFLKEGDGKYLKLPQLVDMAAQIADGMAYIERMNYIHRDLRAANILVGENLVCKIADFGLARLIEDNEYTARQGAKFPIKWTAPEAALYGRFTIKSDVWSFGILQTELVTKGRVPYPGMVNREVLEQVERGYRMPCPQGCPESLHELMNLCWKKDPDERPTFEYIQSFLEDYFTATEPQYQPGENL

For the compound `C=CC(=O)Nc1cccc(Oc2nc(Nc3ccc(N4CCN(C)CC4)cc3)nc3ccoc23)c1` [HM71224], the 50% inhibitory concentration (IC50) at EGFR [1] was 800 nM; on EGFR [6] it was 4.96 nM; on BTK [7], 1.95 nM; on BLK, 13.5 nM; at LYN, above 1000 nM; on BMX, 0.64 nM. Further, the IC50 is above 1000 nM on LCK; 562 nM at YES; 103 nM on ITK; above 1000 nM at CSK; 4.57 nM at TEC; 4.62 nM at TXK. Also, the “Phosphorylation of Btk and Erk by phospho-flow” value in [2] was “inhibited phosphorylation of BTK, and p-Erk in a dose-dependent manner”. In addition, on BTK [3], the Kinome binding selectivity result is “selectively bound to Btk”. The “Duration of inhibition of BTK phosphorylation after washout” value in assay [4] (100 nM for 1 h, washed, then anti-IgM F(ab')2) is listed as “at least 24 h”. The “Phosphorylation of Btk and PLCγ2” value in assay [4] (anti-IgM F(ab')2) is “decreased markedly”; in assay [8], “effectively inhibited”. For the same compound, in assay [5], the “CpG-mediated production of TNF-α and IL-6” value is reported as “inhibited CpG-mediated cytokine production”. This compound also yielded an inhibition at 1 µM in the assay with human CD14+ monocytes of around 50%. Moreover, the “T cell receptor signaling (p-STAT1, p-STAT3 and p-STAT5)” value with CD3+ T cells is “not affected”. For the same compound, the “p-ERK1/2 in CD3+ T cells” value with CD3+ T cells was “inhibited”. Also, the values for the Btk molecules occupied result at BTK [9] (10 nM) and at BTK [9] (100 nM) were “approximately 90%” and around 100%, respectively.

A word on the IC50: it is the concentration at which inhibition is half-maximal. A word on the inhibition: it is the change of the read-out against control, counted positive when it falls.
